According to PMC10147607, “MSI2 promotes translation of multiple IRES-containing oncogenes and virus to induce self-renewal of tumor initiating stem-like cells” (Cell Death Discovery, 2023):

Tests used:
[1] = biological target: T1, MSI2 (full-length, wild type; recombinant MSI2) (Homo sapiens, UniProt Q96DH6); assay: ligand binding curve, probably MST (method for gossypol not stated explicitly)
T1 construct: full-length recombinant MSI2, purified; His6-tagged in EMSA (MSI2-His6)

[2] = biological target: T1, MSI2 (full-length, wild type; recombinant MSI2); assay: microscale thermophoresis (MST); assay type: binding

T1 sequence (Q96DH6 whole entry): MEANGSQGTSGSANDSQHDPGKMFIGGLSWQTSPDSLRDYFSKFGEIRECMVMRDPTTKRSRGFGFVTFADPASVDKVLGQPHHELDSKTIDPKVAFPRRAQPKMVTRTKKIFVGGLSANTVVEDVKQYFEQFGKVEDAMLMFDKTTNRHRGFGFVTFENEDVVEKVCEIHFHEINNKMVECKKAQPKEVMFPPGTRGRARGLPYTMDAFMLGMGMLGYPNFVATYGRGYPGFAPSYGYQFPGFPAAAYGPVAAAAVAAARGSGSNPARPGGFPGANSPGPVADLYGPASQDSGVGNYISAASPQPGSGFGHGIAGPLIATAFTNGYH

SMILES | Kd [1] [µM] | Kd [2] [nM]
Cc1cc2c(C(C)C)c(O)c(O)c(C=O)c2c(O)c1-c1c(C)cc2c(C(C)C)c(O)c(O)c(C=O)c2c1O [Gossypol] | 35 | 
CC(C)(Sc1ccc(CCN(CCCCC2CCCCC2)C(=O)NC2CCCCC2)cc1)C(=O)O [GW7647] |  | 1200
